The source of these data is ChEMBL document CHEMBL1151592, “Synthesis of new 3,4-disubstituted pyrrolidines as thromboxane A2/prostaglandin H2 (TP) receptor antagonists” (Bioorg Med Chem Lett, 1996).

For the first assay, the system named is Cavia porcellus. Put plainly: Compound was evaluated in vivo for inhibition of U 46619 induced increase in tracheal pressure of guinea pig. The settings on record: Trachea, read-out: ID50 (the source's name). The class given is functional.
On to `CC(C)C(=O)N1C[C@@H](C/C=C\CCC(=O)O)[C@@H](c2ccccc2O)C1`, for which the ED50 came out at 0.11 mg/kg. Still for that read-out and setting: next, `O=C(O)CC/C=C\C[C@@H]1CN(Cc2cccnc2)C[C@@H]1c1ccccc1O`: 1 mg/kg; `O=C(O)CC/C=C\C[C@@H]1CN(S(=O)(=O)c2ccc(Cl)cc2)C[C@H]1c1ccccc1O`: 0.12 mg/kg; `O=C(O)CC/C=C\C[C@@H]1CN(Cc2ccccc2)C[C@@H]1c1ccccc1O`: 0.17 mg/kg. The same measure, in the same setting: next, `O=C(O)CCC/C=C\C[C@@H]1CN(S(=O)(=O)c2cccc3ccccc23)C[C@@H]1c1ccccc1O`: 0.08 mg/kg; `O=C(O)CC/C=C\C[C@@H]1CN(S(=O)(=O)c2cccc3cnccc23)C[C@@H]1c1ccccc1O`: 0.011 mg/kg; `CCCCCCC(=O)N1C[C@@H](C/C=C\CCC(=O)O)[C@@H](c2ccccc2O)C1`: 0.43 mg/kg. Regarding `O=C(O)CC/C=C\C[C@@H]1CN(S(=O)(=O)c2cccc3ccccc23)C[C@@H]1c1ccccc1O`, the ED50 came out at 0.0075 mg/kg. On the same count and under the same terms, next, `O=C(O)CC/C=C\C[C@@H]1CN(S(=O)(=O)c2cccc3cnccc23)C[C@H]1c1ccccc1O`: 0.056 mg/kg; `O=C(O)CC/C=C\C[C@@H]1CO[C@H](c2ccccc2Cl)O[C@@H]1c1ccccc1O`: 0.0007 mg/kg; `O=C(O)CC/C=C\C[C@@H]1CN(S(=O)(=O)c2ccc(Cl)cc2)C[C@@H]1c1ccccc1O`: 0.03 mg/kg. Consider `O=C(O)CC/C=C\C[C@@H]1CN(S(=O)(=O)c2cccc3cccnc23)C[C@@H]1c1ccccc1O`, for which the ED50 is 0.025 mg/kg.

Another assay is filed under the species Homo sapiens. As to the kind of experiment: Compound was evaluated for anti-platelet activity by measuring its inhibitory effect on human platelet rich plasma (PRP) aggregated with U-46,619.
Settings: not given
Format: functional.
Turning to `O=C(O)CCC/C=C\C[C@@H]1CN(S(=O)(=O)c2cccc3ccccc23)C[C@@H]1c1ccccc1O`, the concentration for half-maximal inhibition (IC50) (as a rule, the concentration that gives 50% inhibition) is 3600 nM.

With `O=C(O)CC/C=C\C[C@@H]1CN(S(=O)(=O)c2cccc3cnccc23)C[C@@H]1c1ccccc1O`, the half-inhibitory concentration (IC50) came out at 1300 nM. Same read-out and setting: next, `O=C(O)CC/C=C\C[C@@H]1CN(S(=O)(=O)c2cccc3ccccc23)C[C@@H]1c1ccccc1O`: 600 nM; `O=C(O)CC/C=C\C[C@@H]1CN(S(=O)(=O)c2ccc(Cl)cc2)C[C@@H]1c1ccccc1O`: 4700 nM. Same read-out and setting: the value for `O=C(O)CC/C=C\C[C@@H]1CN(S(=O)(=O)c2cccc3cccnc23)C[C@@H]1c1ccccc1O` was 3000 nM.

The target in a further assay is Thromboxane A2 receptor (Cavia porcellus). Put plainly: Antagonistic activity against TP-receptor by inhibition of U 46619-induced contraction of isolated guinea pig trachea. The settings on record: read-out: pA2 (converted).
For `O=C(O)CC/C=C\C[C@@H]1CN(S(=O)(=O)c2ccc(Cl)cc2)C[C@H]1c1ccccc1O`, the Kb is 12.6 nM. Still for that read-out and setting: the value for `O=C(O)CC/C=C\C[C@@H]1CN(Cc2ccccc2)C[C@@H]1c1ccccc1O` was 251 nM.

`O=C(O)CCC/C=C\C[C@@H]1CN(S(=O)(=O)c2cccc3ccccc23)C[C@@H]1c1ccccc1O`: the Kb is 6.31 nM. Regarding `O=C(O)CC/C=C\C[C@@H]1CN(S(=O)(=O)c2ccc(Cl)cc2)C[C@@H]1c1ccccc1O`, the Kb was 1 nM.
